Test results reported in PubChem BioAssay (NCI).
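Following 48 hours of exposure in 96-well plates, responses at five concentrations were used to interpolate endpoints linearly. GI50 marks 50% less growth. TGI: concentration producing complete growth inhibition.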

How the values were obtained:
Test in all cases: NCI tumour cell line growth inhibition, 48 h
RXF 393 renal = tested on: RXF 393 renal
SK-MEL-5 melanoma = tested on: SK-MEL-5 melanoma
HT29 colon = tested on: HT29 colon
SF-539 CNS = tested on: SF-539 CNS
SW-620 colon = tested on: SW-620 colon
SF-295 CNS = tested on: SF-295 CNS
OVCAR-8 ovarian = tested on: OVCAR-8 ovarian
NCI-H522 lung = tested on: NCI-H522 lung
BT-549 breast = tested on: BT-549 breast
SN12C renal = tested on: SN12C renal

Compound | TGI (RXF 393 renal) [µM] | TGI (SK-MEL-5 melanoma) [µM] | TGI (HT29 colon) [µM] | TGI (SF-539 CNS) [µM] | TGI (SW-620 colon) [µM] | TGI (SF-295 CNS) [µM] | TGI (OVCAR-8 ovarian) [µM] | TGI (NCI-H522 lung) [µM] | TGI (BT-549 breast) [µM] | TGI (SN12C renal) [µM] | GI50 (RXF 393 renal) [µM] | GI50 (SK-MEL-5 melanoma) [µM] | GI50 (HT29 colon) [µM] | GI50 (SF-539 CNS) [µM] | GI50 (SW-620 colon) [µM] | GI50 (SF-295 CNS) [µM] | GI50 (OVCAR-8 ovarian) [µM] | GI50 (NCI-H522 lung) [µM] | GI50 (BT-549 breast) [µM] | GI50 (SN12C renal) [µM]
O=C1CCCC1C(O)(C(F)(F)Cl)C(F)(F)Cl (centres undefined) | > 10 | > 10 | > 10 | > 10 | > 10 | > 10 | > 10 | > 10 | > 10 | > 10 | – | – | – | – | – | – | – | – | – | –
COc1cc(-c2cc(C(=O)N3CCN(C(=O)c4ccccc4NCc4cccs4)CC3)nc3cc(-c4ccccc4)nn23)cc(OC)c1OC | 8.01 | 11.5 | 15 | > 100 | > 100 | > 100 | > 100 | 4.68 | > 100 | > 100 | 2.45 | 2.85 | 3.78 | 9.85 | 4.7 | 3.78 | 30.3 | 1.67 | 6.26 | 29.1
Clc1ccc2c(NCCCNCc3ccc4c(c3)OCO4)ccnc2c1 | 5.07 | 3.13 | 6.85 | 3.41 | 11.1 | 7.11 | 13.1 | 8.01 | 17.7 | 21.6 | 1.87 | 1.74 | 2.23 | 1.85 | 2.96 | 2.34 | 3.64 | 2.44 | 4.47 | 8.26
O=C(Nc1ccc(-n2cc(-c3ccncc3)c(-c3ccc(Cl)c(O)c3)n2)cc1)c1ccc(Cl)c(C(F)(F)F)c1 | 0.606 | 1.64 | 3.05 | 2.99 | 3.14 | 0.475 | > 46 | 4.04 | 12.6 | > 83.6 | 0.213 | 0.6 | 0.838 | 0.65 | 1.48 | 0.216 | 2.82 | 1.14 | 1.12 | 4.39
O=C1/C=C/[C@@H](O)[C@@H]2C[C@@H](O)C[C@H]2/C=C/CCCCO1 | – | 0.295 | > 100 | > 100 | 0.752 | > 100 | > 100 | 5.63 | > 100 | > 100 | 0.424 | 0.157 | 0.338 | 0.383 | 0.247 | 0.774 | 0.516 | 1.77 | 0.607 | 0.954
Cn1cc(C2=C(c3cn(CCCN/C(N)=N\[N+](=O)[O-])c4ccccc34)C(=O)NC2=O)c2ccccc21 | 7.3 | 7.37 | 12.6 | 5.11 | > 22.1 | > 23.6 | > 18.5 | 9.99 | 9.38 | 16.6 | 2 | 2.33 | 2.87 | 0.968 | 5.63 | 3.74 | 3.98 | 2.44 | 2.1 | 2.65
